According to patent US20230131111A1, “BIODEGRADABLE POLYIMIDAZOLIUMS AND OLIGOIMIDAZOLIUMS” (Nanyang Technological University, priority 2020, published 2023):

Tests used:
S. aureus (SA) = assay: MIC broth microdilution; format: cell-based, Staphylococcus aureus
P. aeruginosa PAO1 = assay: MIC90 broth microdilution; format: cell-based, Pseudomonas aeruginosa
3T3 cells = assay: Mammalian cell cytotoxicity, MTT; format: cell-based, Mouse; conditions: mouse embryonic fibroblast 3T3 cells, MTT
MRSA BAA39 biofilm = assay: MBEC antibiofilm assay; conditions: 4 h treatment
Protocol: (§1) The MBEC was measured using micro-titre plate-based technology. Briefly, 160 μL of MRSA BAA39 or P. aeruginosa O1 suspension (cell density at ˜10^7 CFU/mL) was added into the 96-well growth plate covered by a lid containing MBEC pegs. Biofilm were grown on the peg lid after incubation at 37° C. for 24-48 h. After removing planktonic bacteria by washing with PBS twice, the lid with biofilm were transferred into the challenge plate which contained two-fold serial dilutions of one of P1-P6 solution, with total volume of 200 μL in each well. The treatment was performed at room temperature for 4 h. After that, the peg lid was washed again with PBS and transferred to a recovery plate which contained PBS (200 μL) in each well. Biofilm bacteria that survived were dislodged from the peg lid by sonication for 30±5 min, and detached bacteria were then 10-fold serial-diluted in sterile PBS and spread on agar plates. After incubation at 37° C. for 24 h, the colonies were counted.

P. aeruginosa O1 biofilm = assay: MBEC antibiofilm assay; conditions: 4 h treatment
Protocol: as §1

MRSA BAA39 = assay: MIC broth microdilution; format: cell-based, Staphylococcus aureus
E. coli (EC) = assay: MIC broth microdilution; format: cell-based, Escherichia coli

## Benzalkonium chloride [C3]
S. aureus (SA)
  MIC SA: 1 to 2 µg/mL
P. aeruginosa PAO1
  MIC PAO1: 128 µg/mL
3T3 cells
  IC50: 10 µg/mL
MRSA BAA39 biofilm
  antibiofilm efficacy rank: P(ImC8)>P(ImC8-co-ImC8D)-50%˜P(ImC6)>BAC
P. aeruginosa O1 biofilm
  antibiofilm potency order: P(ImC8)>P(ImC8-co-ImC8D)-50%>P(ImC6)>BAC
MRSA BAA39
  MIC MRSA BAA39: 1 µg/mL
E. coli (EC)
  MIC EC: 16 µg/mL
